Test results from ChEMBL document CHEMBL1671776, “Convergent evolution-guided design of antimicrobial peptides derived from influenza A virus hemagglutinin” (J Med Chem, 2011).
Calls of active or inactive are those of the source. The rule behind the calls is not given here.

Tests used:
Saccharomyces cerevisiae = assay: Antimicrobial activity against Saccharomyces cerevisiae assessed as lethal concentration; assay type: functional
Klebsiella sp. = assay: Antimicrobial activity against Klebsiella sp. F51-1-2 assessed as lethal concentration; assay type: functional
Stenotrophomonas [1] = assay: Antimicrobial activity against Stenotrophomonas LZ-1 assessed as lethal concentration; assay type: functional
Micrococcus luteus = assay: Antimicrobial activity against Micrococcus luteus assessed as lethal concentration; assay type: functional
Stenotrophomonas [2] = assay: Antimicrobial activity against Stenotrophomonas YC-1 assessed as lethal concentration; assay type: functional
Salmonella typhimurium = assay: Antimicrobial activity against Salmonella Typhimurium assessed as lethal concentration; assay type: functional
[3] = tested on: Agrobacterium tumefaciens; assay: Antimicrobial activity against Agrobacterium tumefaciens assessed as lethal concentration; assay type: functional
Geotrichum candidum = assay: Antifungal activity against Geotrichum candidum assessed as lethal concentration; assay type: functional
Pseudomonas aeruginosa = assay: Antimicrobial activity against Pseudomonas aeruginosa assessed as lethal concentration; assay type: functional
Shewanella oneidensis = assay: Antimicrobial activity against Shewanella oneidensis assessed as lethal concentration; assay type: functional
Priestia megaterium = assay: Antimicrobial activity against Bacillus megaterium assessed as lethal concentration; assay type: functional
Serratia marcescens = assay: Antimicrobial activity against Serratia marcescens assessed as lethal concentration; assay type: functional
Bacillus sp. [4] = assay: Antimicrobial activity against Bacillus sp. DM-1 assessed as lethal concentration; assay type: functional
Pseudomonas putida = assay: Antimicrobial activity against Pseudomonas putida assessed as lethal concentration; assay type: functional
[5] = Cytotoxicity against mouse erythrocyte assessed as hemolysis at 50 uM; assay type: cell-based; conditions: erythrocytes, read-out: Activity
Bacillus sp. [6] = assay: Induction of membrane disruption in Bacillus sp. DM-1 at 10 uM after 30 mins using propidium iodide; assay type: functional, organism-based
[7] = Salmonella enterica subsp. enterica serovar Typhimurium

Substance	Activity (Saccharomyces cerevisiae)	Activity (Klebsiella sp.)	Activity (Stenotrophomonas [1])	Activity (Micrococcus luteus)	Activity (Stenotrophomonas [2])	Activity (Salmonella typhimurium; [7])	Activity [3]	Activity (Geotrichum candidum)	Activity (Pseudomonas aeruginosa)	Activity (Shewanella oneidensis)	Activity (Priestia megaterium)	Activity (Serratia marcescens)	Activity (Bacillus sp. [4])	Activity (Pseudomonas putida)	hemolysis at 50 µM [5]	Activity (Salmonella typhimurium)	Activity (Bacillus sp. [6])
H-IFGAIAGFIKNIW-OH	inactive	inactive	inactive	inactive	inactive	inactive	inactive	inactive	inactive	inactive	inactive	inactive	49.93 µM	inactive	–	–	–
H-IFGAIAGLLKNIF-NH2 [Meucin-13]	18.3 µM	–	–	2.9 µM	6.2 µM	–	11.8 µM	>50 µM	inactive	6.2 µM	0.25 µM	inactive	2 µM	–	64.7%	>50 µM	Active
H-IFGAIAGFIKNIW-NH2	28.29 µM	23.81 µM	>100 µM	5.95 µM	76.98 µM	–	20.79 µM	5.36 µM	31.55 µM	76.98 µM	14.1 µM	19.25 µM	2.16 µM	9.78 µM	24.1%	>100 µM	–
H-IFGAIAGFIKNGW-OH	inactive	inactive	inactive	inactive	inactive	inactive	inactive	inactive	inactive	inactive	inactive	inactive	49.93 µM	inactive	–	–	–
H-IFGAIAGFIKNGW-NH2	83.26 µM	>100 µM	inactive	14.1 µM	inactive	inactive	inactive	inactive	inactive	inactive	inactive	>100 µM	5.36 µM	inactive	–	–	–
